First: Cc1ccc(C(=O)Oc2cc(O)ccn2)cc1
Second: O=Cc1cc(O)ccc1-c1cccnc1
The melting point of the first is lower: 120 to 127 °C for the first, 182 to 184 °C for the second.

Compared with `CCCCCC(O)CCCC(CCCCCCC(=O)O)S(C)(=O)=O` (stereo not drawn), `CCCCCCC/C=C/C(=O)NCC` is lower in melting point: 47 to 48 °C for the first, 38 to 40 °C for the second.

First: CCCCCCCCC1=C(Cl)C(=O)c2ccccc2C1=O
Second: CCCCc1c[nH]c2c(Br)cccc2c1=O
The melting point of the first is lower: 69 to 70 °C for the first, 172 °C for the second.

First: CC(C)N(CCCNC(=O)Cn1ncc(-c2ccccc2)c1-c1ccccc1)C(C)C
Second: O=C(N[C@@H](CSC(=O)c1ccccc1)C(=O)O)c1ccccc1
The melting point of the first is lower: 83 to 84 °C for the first, 183 to 185 °C for the second.

First: NC1CC(O)c2ccccc21 (stereo not drawn)
Second: CC(=O)N1CCN(N)c2ccccc2C1
The melting point of the first is higher: 108 to 110 °C for the first, 66 to 68 °C for the second.

Compared with `O=C(c1ccccc1)n1c(=O)n(C2CCN(CCCN3c4cccc5cccc(c45)S3(=O)=O)CC2)c2ccccc21`, `CN(CCC(=O)O)c1ccccc1CNC(=O)C1Cc2ccccc2N1S(=O)(=O)c1ccc(-c2ccc(F)cc2Cl)cc1` (stereo not drawn) is lower in melting point: 133 °C for the first, 75 to 83 °C for the second.

Compared with `CN(C)S(=O)(=O)c1c(S(N)(=O)=O)ccn1C`, `CS(=O)(=O)Nc1ccc([N+](=O)[O-])cn1` is higher in melting point: 146 to 148 °C for the first, 217 to 220 °C for the second.

Compared with `CSCc1sccc1S(=O)(=O)N(C)c1cccc2cc(-c3nccs3)[nH]c12`, `CCN(c1cccc2cc(C3=NCCS3)[nH]c12)S(=O)(=O)c1cccs1` is lower in melting point: 213 °C for the first, 206 to 207 °C for the second.

First: COCCOc1ccc(COC(C)=O)c(Oc2ncc(C(F)(F)F)cc2Cl)c1
Second: CC(=O)Nc1cccc(OCC(O)CNCCOc2ccc(C(N)=O)cc2)c1 (stereo not drawn)
The melting point of the first is lower: 52.5 to 53 °C for the first, 164 to 165 °C for the second.

Compared with `O=C(O)CCSC(CCCc1ccccc1)c1ccc(OCc2ccc3ccccc3n2)cc1` (stereo not drawn), `CC(=O)OC(C)c1ccc(-c2ccc(OCc3ccccc3)cc2)cc1` (single isomer, unassigned; (+)) is higher in melting point: 97 to 100 °C for the first, 137 °C for the second.

Compared with `COC(=O)Cc1ccc(OC[C@@H](C)NC[C@H](O)c2ccccc2)cc1`, `O=C(Nc1cccnc1Nc1ccc(CCNC[C@H](O)COc2ccc(O)cc2)cc1)c1ccccc1` is higher in melting point: 69 to 70 °C for the first, 97 to 99 °C for the second.

Compared with `CNC(=O)NN(CC(=O)OC)c1cccc(I)c1`, `COC(=O)CN(C)C(=S)c1cccc2c(Br)cccc12` is lower in melting point: 150 °C for the first, 85 to 86 °C for the second.

Compared with `O=C(O)C1=Cc2ccc(Cl)c(Cl)c2OC1C(F)(F)F` (stereo not drawn), `Cc1ccc(-c2nn(-c3cccc(OC(F)(F)F)c3)c(N)c2C(N)=O)cc1` is lower in melting point: 220 to 221 °C for the first, 177 to 179 °C for the second.

First: CCOC(=O)NCC(=O)O
Second: CC(=O)Nc1ccc(CC[C@](O)(CC(=O)O)C(C)C)cc1
The melting point of the first is lower: 55 to 58 °C for the first, 119 to 120 °C for the second.

First: O=C(NOc1ccc([N+](=O)[O-])cc1)OCCCNC(=O)OC1CCN(C(=O)Oc2ccc(Oc3ccccc3)cc2)CC1
Second: CCCCCCCCCCCCCCOc1cc(OCCCOc2ccc(OCc3ccccc3)cc2)cc(C(=O)OC)c1
The melting point of the first is higher: 97 to 100 °C for the first, 69 to 70 °C for the second.

First: CC(C)(C)CC(=O)N1CCC(c2ccc(COc3ccc(S(C)(=O)=O)cc3)nc2)CC1
Second: CC1(C)CCC(C)(C)c2cc(CC(=O)Oc3ccc(C(=O)O)cc3)ccc21
The melting point of the first is lower: 140 to 142 °C for the first, 142 to 143 °C for the second.

First: CC(C)CC1(CC(=O)NO)CCN(Cc2ccccc2)C1=O (stereo not drawn)
Second: CC(=O)N1CCN(c2c(N[C@@H](Cc3ccccc3)C(=O)O)c(=O)c2=O)CC1
The melting point of the first is lower: 119 to 120 °C for the first, 155 to 158 °C for the second.

Compared with `Cc1ccc(S(=O)(=O)c2ccc(Cl)c(NC(=O)N[C@@H](Cc3ccc(NC(=O)c4c(Cl)cccc4Cl)cc3)C(=O)O)c2)cc1`, `COc1ccc(OC)c(S(=O)(=O)c2ccc(Cl)cc2NC(=O)N[C@@H](Cc2ccc(NC(=O)c3c(Cl)cncc3Cl)cc2)C(=O)O)c1` is lower in melting point: 241 °C for the first, 168 °C for the second.

Compared with `C=CCN1CC(C)N(C(c2cccc(O)c2)c2cc(C(=O)N(CC)CC)cs2)CC1C` (stereo not drawn), `O=C(O)c1ccccc1CN1CCc2sccc2C1` is higher in melting point: 108 to 112 °C for the first, 200 to 205 °C for the second.

First: CCC(=O)NC(Cc1ccccc1)c1ccccn1 (stereo not drawn)
Second: CC[C@@H](Nc1nc(NCc2ccccc2)c2ncn(C(C)C)c2n1)[C@H](C)O
The melting point of the first is higher: 91 to 93 °C for the first, 42 to 44 °C for the second.

Compared with `O=c1c(Cl)nc2cccnc2n1-c1ccc(Cl)cc1`, `COCC(=O)Nc1cccc(-n2nc(OC)c(=O)n(Cc3ccc(Cl)cc3)c2=O)c1` is lower in melting point: over 300 °C for the first, 143 °C for the second.

First: COc1cc(CO)ccc1OCc1nc(N2CCOCC2)sc1C
Second: O=C(Nc1ccc(OCCN2CCOCC2)c2ccccc12)c1cccc(N2CCCCC2)c1
The melting point of the first is lower: 121 to 122 °C for the first, 147 to 148 °C for the second.

First: COC(=O)CCc1nc(CCc2ccc(C(=O)OC)cc2)ccc1O
Second: CCCCc1c(CO)ccc2ccc(OC)cc12
The melting point of the first is higher: 137 to 139 °C for the first, 52 to 53 °C for the second.

First: C=CCNc1nc(NCC=C)nc(N2CCNCC2)n1
Second: CC(=O)NCC1CN(c2ccc(N3CCN(C4N=NC(=O)S4)CC3)c(F)c2)C(=O)O1 (stereo not drawn)
The melting point of the first is lower: 93 to 94.5 °C for the first, 173 to 175 °C for the second.

Compared with `CC1CC(=O)NN=C1c1ccc2c(c1)NC(=O)C(C)O2` (stereo not drawn), `NCc1cc2c(N)nccc2o1` is lower in melting point: 271 to 272 °C for the first, 142 to 144 °C for the second.

First: O=S(=O)(Nc1ccccc1O)c1cc(S(=O)(=O)Nc2ccccc2O)c2cc(O)ccc2c1
Second: Cc1ccc2c(c1)Cc1c(C(=O)C(C#N)C(=O)Nc3ccccc3)nn(-c3ccccc3)c1-2 (stereo not drawn)
The melting point of the first is lower: 118 to 120 °C for the first, 249 to 251 °C for the second.

Compared with `CCCn1cc(C(=O)c2cccc3cc(OC)ccc23)c2ccccc21`, `CCCN(c1ccncc1)n1ccc2cc(OC(=O)NC(C)C)ccc21` is lower in melting point: 139 to 140 °C for the first, 131 to 133 °C for the second.

First: COc1ccc(-c2cc(CN3CCN(C)CC3)c(=O)n(Cc3ccc(Cl)cc3)n2)cc1F
Second: CCc1ccc(-n2c(-c3ccc(SC)cc3)nc(SC)c(C#N)c2=O)cc1
The melting point of the first is lower: 129 to 130 °C for the first, 223 to 225 °C for the second.

Compared with `CN1CCC2(CC1=O)c1ccccc1Oc1ccccc12`, `CCC(=O)N(C)c1cccc(-c2ccnc3c(C(=O)c4ccco4)cnn23)c1` is lower in melting point: 158 to 159 °C for the first, 153 to 155 °C for the second.

First: CCCCC(=O)N(Cc1ccc(Br)cc1)[C@H](C(=O)O)C(C)C
Second: CC(C)(C)c1ccc(Cn2ccc3cc(Br)ccc32)cc1
The melting point of the first is higher: 123 °C for the first, 108 to 109 °C for the second.

First: COc1cc2c(cc1OC)-c1cc(OC)c(OC)c3c1C(C2)CN(C)C3 (stereo not drawn)
Second: O=C1C(=O)c2ccccc2C2=C1SCC1(CCN(CC3CCCCO3)CC1)O2 (stereo not drawn)
The melting point of the first is higher: 170 to 177 °C for the first, 135 to 137 °C for the second.

Compared with `O=C(Nc1ccc(N2CCOCC2=O)cc1)[C@H]1C[C@@H](O)CN1C(=O)/C=C/c1ccc(Cl)s1`, `CNC(=O)C1OC1C(=O)c1ccc(Cl)cc1` (stereo not drawn) is higher in melting point: 151 °C for the first, 160 to 161 °C for the second.

Compared with `CC(C)(C)OC(=O)N(C(=O)OC(C)(C)C)c1cc(-c2ccc(N)cc2)n(C(=O)OC(C)(C)C)n1`, `COC(=O)c1[nH]c2cccc(C)c2c1Sc1ccc(Cl)cc1` is higher in melting point: 84 to 85 °C for the first, 192 to 193 °C for the second.

First: S=c1c(Br)coc2ccccc12
Second: Cc1oc(-c2ccco2)nc1COc1ccc(CCl)cn1
The melting point of the first is lower: 41 °C for the first, 95 to 96 °C for the second.

Compared with `O=C1NC2CCC(=O)N2[C@H]1CO` (stereo partly drawn), `C=C1C(O)C(CO)OC1n1cc(I)c(N)nc1=O` (stereo not drawn) is higher in melting point: 61 to 75 °C for the first, 159 to 161 °C for the second.

Compared with `CCSCc1cc(O)nc(N(C)C)n1`, `CSc1cc(SC)c(SC)cc1SC` is higher in melting point: 119 to 121 °C for the first, 127 to 129 °C for the second.

In the case of `CC1(C)OC(C)(C)C(=NO)C1=NO`, the melting point was 252 °C.
